Laboratory results reported in PubChem BioAssay AID248 (DTP/NCI, 2004).
Where “and” joins values, the source holds several entries; their conditions need not be identical. Equal entries are not always repeated. Inconclusive results and toxic doses are left out. No stated cut-off is given here; in the data, active means T/C of 150% or more; inactive means T/C below 125%.

System: L1210 leukemia ip in BDF1 mice, survival T/C
Test: NCI In Vivo Anticancer Drug Screen. Data for tumor model L1210 Leukemia (intraperitoneal) in B6D2F1 (BDF1) mice
Details: endpoint: mean survival time, higher = longer survival
Procedure, shortened: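 Ratio derived from survival: compound-dosed mice over vehicle-dosed mice, all bearing a transplantable tumor.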

[1] = dose: 100.0 mg/kg/injection, schedule: Q01DX009 (ip), vehicle: saline
[2] = dose: 100.0 mg/kg/injection, schedule: Q04DX003 (ip), vehicle: saline
[3] = dose: 200.0 mg/kg/injection, schedule: Q01DX009 (ip), vehicle: saline
[4] = dose: 200.0 mg/kg/injection, schedule: Q04DX003 (ip), vehicle: saline
[5] = dose: 400.0 mg/kg/injection, schedule: Q01DX009 (ip), vehicle: saline
[6] = dose: 400.0 mg/kg/injection, schedule: Q04DX003 (ip), vehicle: saline
[7] = dose: 100.0 mg/kg/injection, schedule: Q04DX003 (ip), vehicle: Klucel (hydroxypropylcellulose) (HPC)
[8] = dose: 200.0 mg/kg/injection, schedule: Q04DX003 (ip), vehicle: Klucel (hydroxypropylcellulose) (HPC)
[9] = dose: 25.0 mg/kg/injection, schedule: Q01DX009 (ip), vehicle: saline
[10] = dose: 50.0 mg/kg/injection, schedule: Q01DX009 (ip), vehicle: saline
[11] = dose: 50.0 mg/kg/injection, schedule: Q01DX009 (ip), vehicle: Klucel (hydroxypropylcellulose) (HPC)
[12] = dose: 100.0 mg/kg/injection, schedule: Q01DX009 (ip), vehicle: Klucel (hydroxypropylcellulose) (HPC)
[13] = dose: 200.0 mg/kg/injection, schedule: Q01DX009 (ip), vehicle: Klucel (hydroxypropylcellulose) (HPC)
[14] = dose: 400.0 mg/kg/injection, schedule: Q04DX003 (ip), vehicle: Klucel (hydroxypropylcellulose) (HPC)

Measured: T/C

O=C(Cn1cc(F)c(=O)[nH]c1=O)c1cccs1
inactive: [1] 89 % of control | [2] 100 % of control | [3] 89 % of control | [4] 106 % of control | [5] 89 % of control | [6] 111 % of control

O=C(NC(Cc1ccccc1)C(=O)CCl)OCc1ccccc1 (stereo not given)
inactive: dose: 25.0 mg/kg/injection, schedule: Q01DX009 (ip), vehicle: saline with Tween-80 115 % of control | dose: 25.0 mg/kg/injection, schedule: Q04DX002 (ip), vehicle: other 107 % of control | dose: 50.0 mg/kg/injection, schedule: Q01DX009 (ip), vehicle: saline with Tween-80 95 % of control | dose: 50.0 mg/kg/injection, schedule: Q04DX002 (ip), vehicle: other 93 % of control | dose: 100.0 mg/kg/injection, schedule: Q04DX002 (ip), vehicle: other 104 % of control | dose: 100.0 mg/kg/injection, schedule: Q04DX003 (ip), vehicle: saline sonified 108 % of control

CCOC(=O)c1cnc(NN)[nH]c1=O
inactive: [7] 97 % of control | [8] 97 % of control

CCN(CC)CC(=O)NCC(CCN1CCCCC1)(c1cccc2ccccc12)C(C)C (stereo not given)
inactive: [9] 101 % of control | [10] 115 % of control | [1] 112 % of control

O=S1(=O)C=C(Cl)C2C3C=CC(C3)C21 (stereo not given)
inactive: dose: 0.62 mg/kg/injection, schedule: Q01DX009 (ip), vehicle: acetone 101 % of control | dose: 1.25 mg/kg/injection, schedule: Q01DX009 (ip), vehicle: acetone 104 % of control | dose: 2.5 mg/kg/injection, schedule: Q04DX003 (ip), vehicle: acetone 90 % of control | dose: 5.0 mg/kg/injection, schedule: Q04DX003 (ip), vehicle: acetone 92 % of control | dose: 10.0 mg/kg/injection, schedule: Q01DX001 (ip), vehicle: acetone 97 % of control

O=C1c2ccccc2C(=O)N1c1cccc([N+](=O)[O-])c1
inactive: [11] 114 % of control | [12] 90 % of control | [13] 114 % of control

Cc1ccc(S(=O)(=O)OCC2OC(n3cnc4c(N)ncnc43)C(O)C2O)cc1 (stereo not given)
inactive: dose: 100.0 mg/kg/injection, schedule: Q01DX005 (ip), vehicle: saline 105 % of control | dose: 200.0 mg/kg/injection, schedule: Q01DX005 (ip), vehicle: saline 95 % of control

Cc1n(-c2ccccc2)c2c([n+]1Cc1ccc([N+](=O)[O-])cc1)C(=O)c1ccccc1C2=O
inactive: dose: 5.0 mg/kg/injection, schedule: Q01DX001 (ip), vehicle: other 106 % of control | dose: 10.0 mg/kg/injection, schedule: Q01DX001 (ip), vehicle: other 101 % of control | dose: 20.0 mg/kg/injection, schedule: Q01DX001 (ip), vehicle: other 93 % of control | dose: 40.0 mg/kg/injection, schedule: Q01DX001 (ip), vehicle: other 95 % of control

CC(C)OP(=O)(CP(=O)(OC(C)C)OC(C)C)OC(C)C
inactive: [1] 95 % of control | [3] 97 % of control

CC1NC1(c1ccccc1)[n+]1ccccc1 (stereo not given)
inactive: [10] 97 % of control | [1] 95 % of control | [2] 105 % of control | [4] 105 % of control

CCN(CC)C(=O)C1C2C=CC(CC2)C1C(=O)N(CC)CC (stereo not given)
inactive: [2] 100 % of control | [4] 96 % of control | [6] 96 % of control

COc1cc([N+](=O)[O-])ccc1NC(=O)c1ccccc1
inactive: dose: 100.0 mg/kg/injection, schedule: Q01DX001 (ip), vehicle: carboxymethylcellulose (CMC) 99 % of control | dose: 200.0 mg/kg/injection, schedule: Q01DX001 (ip), vehicle: carboxymethylcellulose (CMC) 101 % of control | dose: 400.0 mg/kg/injection, schedule: Q01DX001 (ip), vehicle: carboxymethylcellulose (CMC) 97 % of control

O=C(C=C(C(F)(F)F)C(F)(F)F)c1ccc(F)cc1
inactive: dose: 6.25 mg/kg/injection, schedule: Q01DX009 (ip), vehicle: other 91 % of control | dose: 6.25 mg/kg/injection, schedule: Q04DX003 (ip), vehicle: other 95 % of control | dose: 12.5 mg/kg/injection, schedule: Q01DX009 (ip), vehicle: other 92 % of control | dose: 12.5 mg/kg/injection, schedule: Q04DX003 (ip), vehicle: other 109 % of control | dose: 25.0 mg/kg/injection, schedule: Q01DX009 (ip), vehicle: other 103 % of control | dose: 25.0 mg/kg/injection, schedule: Q04DX003 (ip), vehicle: other 97 % of control and 103 % of control

Nc1nc(N)c(-c2ccc(Cl)c(Cl)c2)c(COc2cccc(CNC(=O)c3cccc(S(=O)(=O)F)c3)c2)n1
inactive: [9] 110 % of control | [10] 102 % of control | [1] 98 % of control | [3] 102 % of control | [5] 105 % of control

Cc1cc(N(C)C)c([N+](=O)[O-])cc1C=O
inactive: [12] 98 % of control | [7] 100 % of control | [13] 96 % of control | [8] 94 % of control | dose: 400.0 mg/kg/injection, schedule: Q01DX009 (ip), vehicle: Klucel (hydroxypropylcellulose) (HPC) 96 % of control | [14] 94 % of control

O=[N+]([O-])c1ccc2c(c1)N(CCCN1CCN(CCO)CC1)c1ccccc1S2
inactive: dose: 12.5 mg/kg/injection, schedule: Q04DX003 (ip), vehicle: saline 111 % of control | dose: 25.0 mg/kg/injection, schedule: Q04DX003 (ip), vehicle: saline 122 % of control

CN1CCN(Cc2cc(Cl)c3cccnc3c2O)CC1
inactive: dose: 75.0 mg/kg/injection, schedule: Q01DX001 (ip), vehicle: saline 100 % of control | dose: 150.0 mg/kg/injection, schedule: Q01DX001 (ip), vehicle: saline 106 % of control

c1ccc(C(c2ccccc2)[Si](c2ccccc2)(c2ccccc2)C(c2ccccc2)c2ccccc2)cc1
inactive: dose: 25.6 mg/kg/injection, schedule: Q04DX002 (ip), vehicle: saline with Tween-80 107 % of control | [11] 90 % of control | dose: 64.0 mg/kg/injection, schedule: Q04DX002 (ip), vehicle: saline with Tween-80 100 % of control | [12] 86 % of control | dose: 100.0 mg/kg/injection, schedule: Q04DX003 (ip), vehicle: saline with Tween-80 94 % of control | dose: 160.0 mg/kg/injection, schedule: Q04DX002 (ip), vehicle: saline with Tween-80 100 % of control | [13] 88 % of control | dose: 200.0 mg/kg/injection, schedule: Q04DX003 (ip), vehicle: saline with Tween-80 96 % of control | dose: 400.0 mg/kg/injection, schedule: Q04DX002 (ip), vehicle: saline with Tween-80 110 % of control | dose: 400.0 mg/kg/injection, schedule: Q04DX003 (ip), vehicle: saline with Tween-80 91 % of control

COC(=O)C(CCSC)NC(=O)CNC(=O)OCc1ccccc1 (stereo not given)
inactive: [7] 99 % of control | [8] 97 % of control | [14] 92 % of control

COC(=O)C12c3ccccc3C(c3ccccc31)c1c(N=O)ccc(NO)c12
inactive: dose: 25.0 mg/kg/injection, schedule: Q04DX003 (ip), vehicle: Klucel (hydroxypropylcellulose) (HPC) 100 % of control | dose: 50.0 mg/kg/injection, schedule: Q04DX003 (ip), vehicle: Klucel (hydroxypropylcellulose) (HPC) 97 % of control | dose: 100.0 mg/kg/injection, schedule: Q01DX001 (ip), vehicle: Klucel (hydroxypropylcellulose) (HPC) 99 % of control | [7] 94 % of control | dose: 200.0 mg/kg/injection, schedule: Q01DX001 (ip), vehicle: Klucel (hydroxypropylcellulose) (HPC) 90 % of control | [8] 102 % of control | dose: 400.0 mg/kg/injection, schedule: Q01DX001 (ip), vehicle: Klucel (hydroxypropylcellulose) (HPC) 89 % of control | [14] 105 % of control
